Laboratory results as given in patent US20050272040A1, “Method for increasing synaptic growth or plasticity” (priority 2002, published 2005).

System: Hippocampal neurons
Assay: Western blot of VGF protein after BDNF treatment
Format: cell-based, rat
Text: The products of the genes induced following learning may regulate neuronal plasticity at the single-cell level. VGF, like BDNF, is a secreted polypeptide and thus may be relevant for intercellular communication. A functional role for VGF in synaptic plasticity was thus investigated. To determine whether BDNF-induced transcriptional changes of VGF were accompanied by translational alterations, VGF levels were examined following BDNF treatment by western blot analysis. VGF, migrating as a doublet with an apparent molecular weight of 85-90 kD, increased by 1.5-fold within 3 hours of BDNF exposure. VGF protein levels were maximal at 12 hours and remained elevated for 48 hours of continuous BDNF application. Consequently, increased VGF mRNA levels after 3 hours BDNF treatment were associated with enhanced protein translation. VGF protein processing occurs in both neurons and neuroendocrine cells (Trani et al. (1995) J. Neurochem. 65:2441-2449; Salton et al. (2000) supra). The localization of VGF in dissociated hippocampal cultures was examined using a C-terminal antibody (R-15) which labeled both the soma and neurites indicating translocation to the neuronal processes. The expression of VGF was similar to that previously observed in primary neuronal cultures (Benson and Salton (1996) Brain Res. Dev. Brain Res. 96:219-228) and was punctate in appearance. This pattern is consistent with the regulated release of VGF from large dense core vesicles (Trani et al. (1995) supra; Benson and Salton (1996) supra; Possenti et al. (1999) Endocrinology 140:3727-3735) and indicates a physiological role for the peptide.
BDNF-treated and untreated hippocampal neurons plated in equal numbers were solubilized in lysis buffer (20 mM Tris pH 8, 0.5% Triton X-100, 0.5% SDS, protease inhibitor tablet, 1 mM PMSF, and 0.5 mM vanadate). The protein content was determined with the BCA protein assay kit (Pierce Chemical Co, Rockford, Ill.). […] The immunopositive bands were visualized by chemiluminescence using the ECL™ detection kit (NEN, Boston, Mass.), quantitated on a BIO-RAD Gel Doc and normalized to actin.

BDNF: neurotrophin, 50 ng/ml, Preprotech; induces synaptic plasticity in hippocampal neurons
Time VGF protein levels remained elevated (continuous BDNF application): 48 h
Time of maximal VGF protein levels (continuous BDNF application): 12 h
Increase in VGF protein (within 3 hours of BDNF exposure, western blot): 1.5 fold
